Experimental data published in patent US20250066316A1, “CRYSTALLINE FORMS OF A COMPOUND FOR TREATING OR PREVENTING GOUT OR HYPERURICEMIA” (Arthrosi Therapeutics, Inc., priority 2021, published 2025).

Columns and labels:
[1] = molecular target: T1, human URAT1 uptake transporter (Homo sapiens, UniProt Q96S37); assay: In vitro interaction with the human URAT1 uptake transporter (uric acid uptake in MDCKII cells); type: cell-based; details: for inhibition at 10 µM: MDCK-II, read-out: inhibition of URAT1 mediated uric acid accumulation
T1 construct: expressed in transfected cells
T1 sequence (Q96S37 1-553): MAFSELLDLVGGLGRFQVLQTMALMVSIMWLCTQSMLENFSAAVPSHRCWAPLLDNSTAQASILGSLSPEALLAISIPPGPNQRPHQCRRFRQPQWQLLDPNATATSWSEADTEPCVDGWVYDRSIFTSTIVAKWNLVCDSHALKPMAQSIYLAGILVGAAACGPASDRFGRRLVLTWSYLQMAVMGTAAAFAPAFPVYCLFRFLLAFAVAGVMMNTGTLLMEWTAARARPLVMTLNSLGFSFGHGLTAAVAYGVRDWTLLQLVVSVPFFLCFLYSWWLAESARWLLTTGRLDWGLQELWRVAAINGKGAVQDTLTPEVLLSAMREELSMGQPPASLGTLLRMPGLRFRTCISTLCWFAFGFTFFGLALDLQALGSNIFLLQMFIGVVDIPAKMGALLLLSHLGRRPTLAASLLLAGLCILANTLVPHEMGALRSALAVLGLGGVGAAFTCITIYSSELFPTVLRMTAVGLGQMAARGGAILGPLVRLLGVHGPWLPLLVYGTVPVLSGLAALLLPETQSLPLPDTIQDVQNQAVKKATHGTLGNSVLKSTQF
Method: Uptake experiments were performed using MDCKII cells stably expressing the human URAT1 uptake transporter. Cells were cultured at 37±1° C. in an atmosphere of 95:5 air:CO2 and were plated onto standard 96-well tissue culture plates at the cell number described in Table 1.
Radiolabelled probe substrate transport was determined by measuring an aliquot (35 μL) from each well for liquid scintillation counting.

[2] = Solubility of test articles in HBSS assay buffer; details: all tested concentrations; highest tested concentration 10 μM
Method: Before the experiment, the medium was removed and the cells were washed twice with 100 μL of HBSS without Cl^−. Uptake experiments were carried out at 37±1° C. in 50 μL of HBSS without Cl^−, pH 7.4 containing the probe substrate (20 μM uric acid) and the test article (TA) or solvent.

CYP2C9 = CYP2C9 (Homo sapiens, UniProt P11712); assay: CYP2C9 metabolic pathway / metabolite formation; type: in vitro ADME
[3] = Stability in human microsomes; type: in vitro ADME; details: comparison with benzbromarone
[4] = cited from earlier work

Chain of CYP2C9 (P11712 whole entry): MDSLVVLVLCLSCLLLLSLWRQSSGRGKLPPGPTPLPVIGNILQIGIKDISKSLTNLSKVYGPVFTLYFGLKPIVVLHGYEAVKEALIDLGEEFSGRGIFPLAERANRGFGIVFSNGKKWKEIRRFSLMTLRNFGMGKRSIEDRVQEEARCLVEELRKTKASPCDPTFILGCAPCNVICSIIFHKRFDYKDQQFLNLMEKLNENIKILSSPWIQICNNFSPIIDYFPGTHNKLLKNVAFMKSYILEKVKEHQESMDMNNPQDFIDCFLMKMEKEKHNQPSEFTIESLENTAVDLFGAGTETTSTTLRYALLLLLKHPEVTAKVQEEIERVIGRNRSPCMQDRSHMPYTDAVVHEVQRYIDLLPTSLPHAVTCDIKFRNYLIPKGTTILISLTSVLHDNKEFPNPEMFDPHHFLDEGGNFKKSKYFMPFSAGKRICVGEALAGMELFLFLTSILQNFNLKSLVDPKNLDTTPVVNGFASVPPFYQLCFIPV

SMILES | inhibition at 10 µM [1] [%] | in vitro URAT1 potency compared to benzbromarone ([1]; comparison with benzbromarone) | solubility in HBSS buffer [2] | CYP2C9 metabolic pathway of the compound (CYP2C9) | formation of 6-OH benzbromarone and 5,6-di-OH benzbromarone metabolites (CYP2C9) | stability in human microsomes [3] | serum uric acid (sUA) level reached ([4]; chronic therapy, target levels) [mg/dL] | hepatotoxicity ([4]; in certain patients)
[2H]c1c([2H])c([2H])c2c(C(=O)c3cc(Br)c(O)c(Br)c3)c(C(C)O)oc2c1[2H] (stereo not shown) [Compound 1, (3,5-dibromo-4-hydroxyphenyl) (2-(1-hydroxyethyl)benzofuran-3-yl-4,5,6,7-d4) methanone] | 100 | better | soluble | significantly reduced | not formed | more stable than benzbromarone | – | –
CCc1oc2ccccc2c1C(=O)c1cc(Br)c(O)c(Br)c1 [Benzbromarone, reference compound] | 98 | – | soluble | – | – | – | < 6 | associated with hepatotoxicity
